Results from US20230416168A1 (EUROCHEM ANTWERPEN, priority 2020, published 2023).

Tests used:
Sint-Laureins soil = assay: Greenhouse gas emissions from soil fertilized with ammonium, Sint-Laureins soil
Method: (§1) Two agricultural soils coming from fields in Moorslede and Sint-Laureins were used. Screw top vials were filled with 10 g soil. Vials were sealed with Parafilm and preincubated at 21° C. in the dark for 5 days. After pre-incubation, vials were ventilated using a fan. The 100 μL of a 1 mM compound solution (10% DMSO) was added, immediately followed by the addition of 100 μL 200 mM NH4Cl. Vials were closed gastight and 5 mL synthetic air was added to the headspace using a plastic syringe, followed by the transfer of 5 mL headspace to an evacuated 3 mL exetainer. Vials were incubated at 21° C. in the dark and background NO concentration was noted. At each sampling timepoint, 5 mL synthetic air was added again to the headspace using a plastic syringe, again followed by the transfer of 5 mL headspace to an evacuated 3 mL exetainer. Vials were ventilated and closed again, and new gas samples were transferred to texetainers like before. N2O, CO2, CH4 in the exetainers were measured via gas chromatography. NO concentration was measured directly.
(§2) To further confirm the inhibitory effect of the new class of nitrification inhibitors on nitrogen losses, gas emissions from soil fertilized with ammonium and treated with 1,3-thiazolidine-2-thione were captured. NO, N2O, CO2 and CH4 was measured.

Moorslede soil [1] = assay: In soil nitrification inhibition assay, Moorslede soil; settings: soil, 120 h; 20 μM; 5 days; read-out: Average % nitrification inhibition in soil (5 days of incubation, Moorslede soil) at 20 μM
Method: Top layer (0 to 10 cm) soil samples were collected from different fields in Belgium (Merelbeke and Moorslede). Vegetation on the field trial was removed and samples were taken from different plots. All soil samples were mixed and sieved (mesh size 2.8 mm) to filter large debris and homogenize soil. The soil was stored at 5° C. in plastic containers covered with Saran foil to prevent changes in microbial community composition and to maintain the original soil water content.
Soil water content was determined by drying 20 g soil for 48 h in a 60° C. oven and measuring weight before and after drying. Based on the soil water content (±20%), compound solutions were prepared so that addition of 200 μl compound and 200 μl NH4Cl solution would result in a final compound concentration of 50 μM and a final NH4^+ concentration of 10 mM. Per treatment, 5 small pots were filled with 20 g soil. Next, the soil was treated first with the respective compound solution and then with the NH4Cl solution. Per tray, positive (50 μM DMP) and negative controls (DMSO) were included. Pots were incubated at 21° C. (6 a.m. to 10 p.m. light) for 7 days. Demineralized water was added to the soil every 2 to 3 days to a soil weight of 20 g. In the end, each sample of 20 g soil was dissolved in 100 ml 1M KCl and shaken for 1 hour, followed by filtration through Whatmann® paper. The filtrate was used to measure pH, NH4^+ and NO3− concentrations.
A set of examples was tested in the same conditions (Moorslede soil, 3 days of incubation) at a concentration of 50 μM.
Another set of examples was tested in different concentrations in Moorslede soil as well, and were sampled after 5 days.
The effect of 3H-1,3-thiazole-2-thione was tested in soil in accordance with the test described above in section 3.3.

Moorslede soil [2] = assay: Greenhouse gas emissions from soil fertilized with ammonium, Moorslede soil
Method: as §1, §2

Compound: S=C1NCCS1 [Example 3, 1,3-thiazolidine-2-thione]
- Cumulative emission at indicated timepoint [ppm] (Sint-Laureins soil; CH4, 4 h): 0.00 ppm
- Cumulative emission at indicated timepoint [ppm] (Sint-Laureins soil; CH4, 24 h): 0.10 ppm
- Cumulative emission at indicated timepoint [ppm] (Sint-Laureins soil; CH4, 48 h): 0.16 ppm
- Cumulative emission at indicated timepoint [ppm] (Sint-Laureins soil; CH4, 72 h): 0.25 ppm
- Cumulative emission at indicated timepoint [ppm] (Sint-Laureins soil; CH4, 99 h): 0.25 ppm
- Cumulative emission at indicated timepoint [ppm] (Sint-Laureins soil; CO2, 4 h): 372 ppm
- Cumulative emission at indicated timepoint [ppm] (Sint-Laureins soil; CO2, 24 h): 1179 ppm
- Cumulative emission at indicated timepoint [ppm] (Sint-Laureins soil; CO2, 48 h): 2094 ppm
- Cumulative emission at indicated timepoint [ppm] (Sint-Laureins soil; CO2, 72 h): 3101 ppm
- Cumulative emission at indicated timepoint [ppm] (Sint-Laureins soil; CO2, 99 h): 4168 ppm
- Cumulative emission at indicated timepoint [ppm] (Sint-Laureins soil; N2O, 4 h): 0 ppm
- Cumulative emission at indicated timepoint [ppm] (Sint-Laureins soil; N2O, 24 h): 0 ppm
- Cumulative emission at indicated timepoint [ppm] (Sint-Laureins soil; N2O, 48 h): 1 ppm
- Cumulative emission at indicated timepoint [ppm] (Sint-Laureins soil; N2O, 72 h): 1 ppm
- Cumulative emission at indicated timepoint [ppm] (Sint-Laureins soil; N2O, 99 h): 2 ppm
- Cumulative emission at indicated timepoint [ppm] (Sint-Laureins soil; NO, 4 h): 17 ppm
- Cumulative emission at indicated timepoint [ppm] (Sint-Laureins soil; NO, 24 h): 52 ppm
- Cumulative emission at indicated timepoint [ppm] (Sint-Laureins soil; NO, 48 h): 86 ppm
- Cumulative emission at indicated timepoint [ppm] (Sint-Laureins soil; NO, 72 h): 140 ppm
- Cumulative emission at indicated timepoint [ppm] (Sint-Laureins soil; NO, 99 h): 161 ppm
- effect on CH4 emission, in words (Sint-Laureins soil; cumulative, incubation of 99 h): No significant effects
- effect on CO2 emission, in words (Sint-Laureins soil; cumulative, incubation of 99 h): strongly reduced
- effect on N2O emission, in words (Sint-Laureins soil; cumulative, incubation of 99 h): strongly reduced
- effect on NO emission, in words (Sint-Laureins soil; cumulative, incubation of 99 h): strongly reduced
- inhibition at 20 µM (Moorslede soil [1]): 7%
- Cumulative emission at indicated timepoint [ppm] (Moorslede soil [2]; CH4, 4 h): 0.20 ppm
- Cumulative emission at indicated timepoint [ppm] (Moorslede soil [2]; CH4, 24 h): 0.38 ppm
- Cumulative emission at indicated timepoint [ppm] (Moorslede soil [2]; CH4, 48 h): 0.38 ppm
- Cumulative emission at indicated timepoint [ppm] (Moorslede soil [2]; CH4, 72 h): 0.51 ppm
- Cumulative emission at indicated timepoint [ppm] (Moorslede soil [2]; CH4, 99 h): 0.51 ppm
- Cumulative emission at indicated timepoint [ppm] (Moorslede soil [2]; CO2, 4 h): 619 ppm
- Cumulative emission at indicated timepoint [ppm] (Moorslede soil [2]; CO2, 24 h): 2385 ppm
- Cumulative emission at indicated timepoint [ppm] (Moorslede soil [2]; CO2, 48 h): 4261 ppm
- Cumulative emission at indicated timepoint [ppm] (Moorslede soil [2]; CO2, 72 h): 6195 ppm
- Cumulative emission at indicated timepoint [ppm] (Moorslede soil [2]; CO2, 99 h): 8131 ppm
- Cumulative emission at indicated timepoint [ppm] (Moorslede soil [2]; N2O, 4 h): 0 ppm
- Cumulative emission at indicated timepoint [ppm] (Moorslede soil [2]; N2O, 24 h): 0 ppm
- Cumulative emission at indicated timepoint [ppm] (Moorslede soil [2]; N2O, 48 h): 0 ppm
- Cumulative emission at indicated timepoint [ppm] (Moorslede soil [2]; N2O, 72 h): 0 ppm
- Cumulative emission at indicated timepoint [ppm] (Moorslede soil [2]; N2O, 99 h): 0 ppm
- Cumulative emission at indicated timepoint [ppm] (Moorslede soil [2]; NO, 4 h): 25 ppm
- Cumulative emission at indicated timepoint [ppm] (Moorslede soil [2]; NO, 24 h): 28 ppm
- Cumulative emission at indicated timepoint [ppm] (Moorslede soil [2]; NO, 48 h): 43 ppm
- Cumulative emission at indicated timepoint [ppm] (Moorslede soil [2]; NO, 72 h): 65 ppm
- Cumulative emission at indicated timepoint [ppm] (Moorslede soil [2]; NO, 99 h): 65 ppm
- effect on CH4 emission, in words (Moorslede soil [2]; cumulative, incubation of 99 h): No significant effects
- effect on CO2 emission, in words (Moorslede soil [2]; cumulative, incubation of 99 h): strongly reduced
- effect on N2O emission, in words (Moorslede soil [2]; cumulative, incubation of 99 h): strongly reduced
- effect on NO emission, in words (Moorslede soil [2]; cumulative, incubation of 99 h): strongly reduced
